{
  "source": "patent US12410163B2",
  "about": "“Compounds as GLP-IR agonists” (Terns Pharmaceuticals, Inc., priority 2022, dated 2025)",
  "note": "pEC50: −log10 of the molar value.",
  "data": [
    {"system": "not listed separately", "experiment": "Metabolic stability in hepatocytes", "assay_type": "in vitro ADME", "conditions": "cryopreserved human hepatocytes (suspension), 1×10^6 cells/mL, 0-240 min, read-out: hHep t1/2", "method": "(§1) Test compounds are incubated in human hepatocytes and stability is assessed from the substrate […] approach. Test compounds are dissolved in dimethyl sulfoxide (DMSO) to create a 10 mM Stock, and then further diluted to create a 1000× Working Stock of 1 mM with DMSO in 96-well plates for test compounds and the positive control (midazolam). Vials containing cryopreserved hepatocytes are removed from the liquid nitrogen tank and immediately immersed in a 37° C. water bath. The vials are shaken gently until the contents had thawed and were then immediately emptied into 48 mL of pre-warmed HT Medium in a 50 mL conical tube. Cells remaining in the vial are resuspended with 1.0 mL of pre-warmed HT Medium and added to the conical tube. The tube is capped and then gently inverted several times to resuspend the hepatocytes. The cell suspension is centrifuged at 50×g at room temperature for 5 minutes and the supernatant discarded. The cell pellet is loosened by gently swirling the centrifuge tube and is re-suspended in 4 mL of warm Dulbecco's Modified Eagle medium (DMEM). Cell density is determined by a cell counter by Nexcelom, and DMEM medium is added to obtain a target density of 1×10^6 cells/mL. The assay is carried out in 96-well microtiter plates. Test Compounds are incubated at 1 μM with 1×10^6 cells/mL hepatocytes in DMEM for 0, 30, 60, 120 and 240 minutes. The incubation is carried out with gentle shaking at 37° C. under a humid atmosphere of 95% air/5% CO2. The volume of the incubation mixture is 37 μL with a final 0.1% DMSO. At each of the time points, the incubation is stopped by adding 150 μL quenching solution (100% acetonitrile, 0.1% formic acid containing bucetin as an internal standard for positive ESI mode). Subsequently, the mixtures are vortexed for 20 min and centrifuged at 4,000 RPM at 10° C. The supernatant (80 μL) is transferred to a clean 96-well plate and analyzed by LC-MS/MS. Midazolam at 1 μM with a final 0.1% DMSO is included as a positive control to verify assay performance. The percent parent remaining, intrinsic and predicted hepatic clearance and t1/2 are calculated. All samples are analyzed by LC-MS/MS using an AB Sciex API 4000 instrument, coupled to a Shimadzu LC-20AD LC Pump system. Separation is achieved using a Waters Atlantis T3 dC18 reverse phase HPLC column (20 mm×2.1 mm) at a flow rate of 0.5 mL/min. The mobile phase consisted of 0.1% formic acid in water (solvent A) and 0.1% formic acid in 100% acetonitrile (solvent B). Elution conditions are detailed below.\n(§2) The ion optics of each test compound are optimized for their declustering potential (DP), […] (CE), collision-cell exit potential (CXP) and used in a selected ion monitoring experiment in the positive ion mode. The peak area ratio of each test compound to internal standard is then evaluated for stability. The extent of metabolism is calculated based on the disappearance of the test compound, compared to its initial concentration. The initial rates of clearance of the test compound are calculated using the linear regression plot of semi-log % remaining of the compound versus time. The elimination rate constant (k) of the linear regression plot is then used to determine t1/2 and the intrinsic clearance (CLint) using the following formula, where Chepatocyte (million cells/mL) is the cell density of the incubation: k=−slope t1/2=0.693/k CLint=k/Chepatocyte\n(§3) Test compounds were incubated in human hepatocytes and stability was assessed from the substrate […] approach. Test compounds were dissolved in dimethyl sulfoxide (DMSO) to create a 10 mM Stock, and then further diluted to create a 1000× Working Stock of 1 mM with DMSO in 96-well plates for test compounds and the positive control (midazolam). Vials containing cryopreserved hepatocytes were removed from the liquid nitrogen tank and immediately immersed in a 37° C. water bath. […]", "units": {"half-life at 1 μM": "h"}, "values": [
      {"compound": "N#Cc1ccc(COc2cccc(C3CCN(Cc4nc5ccc(C(=O)O)cc5n4C[C@@H]4CCO4)CC3)n2)c(F)c1", "note": "[Reference Compound B, reference compound]", "half-life at 1 μM": 2.6}
    ]},
    {"system": "not listed separately", "experiment": "Metabolic stability in hepatocytes", "assay_type": "in vitro ADME", "conditions": "cryopreserved human hepatocytes (suspension), 1×10^6 cells/mL, intrinsic clearance, read-out: hHep CLint", "method": "as §1, §2, §3", "units": {"CLint scaled at 1 μM": "mL/min/kg"}, "values": [
      {"compound": "N#Cc1ccc(COc2cccc(C3CCN(Cc4nc5ccc(C(=O)O)cc5n4C[C@@H]4CCO4)CC3)n2)c(F)c1", "note": "[Reference Compound B, reference compound]", "CLint scaled at 1 μM": 15.5}
    ]},
    {"target": "T1, human GLP-1R receptor (Homo sapiens, UniProt P43220)", "T1 construct": "expressed in transfected cells", "T1 sequence (P43220 24-463)": "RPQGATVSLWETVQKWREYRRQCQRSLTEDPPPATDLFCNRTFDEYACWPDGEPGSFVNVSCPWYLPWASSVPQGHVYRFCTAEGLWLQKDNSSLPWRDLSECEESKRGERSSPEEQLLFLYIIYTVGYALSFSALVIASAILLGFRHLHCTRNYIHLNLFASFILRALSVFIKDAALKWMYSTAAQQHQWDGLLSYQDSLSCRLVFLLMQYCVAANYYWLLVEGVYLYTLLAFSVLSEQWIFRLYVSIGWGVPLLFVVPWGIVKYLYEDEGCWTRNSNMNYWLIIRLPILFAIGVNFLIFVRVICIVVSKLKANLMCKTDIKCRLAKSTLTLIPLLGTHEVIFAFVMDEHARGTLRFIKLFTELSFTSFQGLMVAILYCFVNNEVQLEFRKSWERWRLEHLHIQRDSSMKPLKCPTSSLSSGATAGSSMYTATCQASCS", "experiment": "GLP-1R low expression cell assay (cAMP TR-FRET, CHO-K1_hGLP-1Rlow_clone10)", "assay_type": "cell-based", "conditions": "CHO-K1_hGLP-1Rlow_clone10 cells, percent activation relative to control GLP-1 peptide", "method": "Stable cell lines expressing high and low GLP-1R surface expression are generated in CHO-K1 cells transfected (Fugene 6) with a puromycin selectable DNA plasmid encoding human GLP-1R receptor (accession number: NM_002062.5) under control of an EF1A promoter. Transfected cells are seeded into 24-well plates (9,000 cells/well) containing complete medium and incubated in a humidified incubator at 37° C. with 5% carbon dioxide. After overnight incubation, medium is replaced with complete medium supplemented with puromycin (6 μg/mL) and refreshed every 2-3 days to select for stably transfected cells. Individual pools of selected cells are expanded prior to analysis for responsiveness to GLP-1 control peptide using a TR-FRET assay to detect cAMP (LANCE Ultra cAMP Assay, Perkin Elmer). Briefly, cells are collected in Versene solution, plated in 384-well plates (1,000 cells/well) and combined with serially diluted GLP-1R control peptide (10 nL) using an acoustic dispenser (ECHO). Plates are incubated for 30 minutes at 25° C. prior to the addition of EU-cAMP tracer (5 μL) and Ulight-anti-cAMP (5 μL) reagents to each well, followed by 15 minutes incubation at 25° C. TR-FRET signal is detected using an EnVision Multimode Plate Reader (excitation=320 nm; emission=615 and 655 nm). Dose-response curves are used to generate EC50 values as a measure of responsiveness to the GLP-1R control peptide. Selected cell lines are monitored for responsiveness over multiple passages to ensure stability. […] Briefly, GLP-1R expression is analyzed by flow cytometry using a fluorescein-labeled Exendin-4 peptide fluorescent probe (FLEX). Cells are harvested in Versene solution and washed 3-times with PBS+0.5% BSA before incubation with FLEX reagent (10 μM) for 2 hours at room temperature. After incubation, cells are washed 3-times in PBS+0.5% BSA before final resuspension in PBS prior to analysis by flow cytometry to measure FLEX mean fluorescence intensity (MFI) as a measure of GLP-1R expression on the cell surface.\nFor compound testing in the CHO-K1_hGLP-1Rlow_clone10 cell lines, cells are seeded in 384-well plates (1,000 cells/well). Test compounds are serially diluted in DMSO (10-point, 3-fold dilution), added to wells using an ECHO dispenser (10 nL/well) and plates are centrifuged for 1 min and agitated for 2 min at room temperature prior to 30-minute incubation at 25° C. After incubation, Eu-cAMP (5 μL) and Ulight-anti-cAMP (5 μL) reagents are added to each well, followed by centrifugation for 1 minute, agitation for 2 minutes at room temperature, and final incubation of the plates at 25° C. for 15 minutes. Plates are read using an EnVision microplate reader (excitation=320 nm; emission=615 and 655 nm). Dose-response curves are generated from duplicate wells based on percent activation calculated relative to a control GLP-1 peptide agonist that was run in parallel. EC50 values are determined by fitting percent activation as a function of compound concentration using the Hill equation (XLfit).\nStable cell lines expressing high and low GLP-1R surface expression were generated in CHO-K1 cells transfected (Fugene 6) with a puromycin selectable DNA plasmid encoding human GLP-1R receptor (accession number: NM_002062.5) under control of an EF1A promoter. Transfected cells were seeded into 24-well plates (9,000 cells/well) containing complete medium and incubated in a humidified incubator at 37° C. with 5% carbon dioxide. After overnight incubation, medium was replaced with complete medium supplemented with puromycin (6 μg/mL) and refreshed every 2-3 days to select for stably transfected cells. Individual pools of selected cells were expanded prior to analysis for responsiveness to GLP-1 control peptide using a TR-FRET assay to detect cAMP (LANCE Ultra cAMP Assay, Perkin Elmer).", "values": [
      {"compound": "N#Cc1ccc(COc2cccc(N3CCN(Cc4nc5ccc(-c6nnc(C(F)(F)F)[nH]6)cc5n4Cc4cncs4)[C@@H]4C[C@@H]43)n2)c(F)c1", "note": "(racemic) [Compound 12, 3-Fluoro-4-(((6-(5-((1-(thiazol-5-ylmethyl)-6-(5-(trifluoromethyl)-4H-1,2,4-triazol-3-yl)-1H-benzo[d]imidazol-2-yl)methyl)-2,5-diazabicyclo[4.1.0]heptan-2-yl)pyridin-2-yl)oxy)methyl)benzonitrile]", "pEC50": "< 7.00"},
      {"compound": "CC1(c2ccc(C#N)cc2F)Oc2cccc(N3CCN(Cc4nc5ccc(-c6nnc(C(F)(F)F)[nH]6)cc5n4Cc4cncs4)C4CC43)c2O1", "note": "(centres unmarked) [Compound 13, 3-Fluoro-4-(2-methyl-4-(5-((1-(thiazol-5-ylmethyl)-6-(5-(trifluoromethyl)-4H-1,2,4-triazol-3-yl)-1H-benzo[d]imidazol-2-yl)methyl)-2,5-diazabicyclo[4.1.0]heptan-2-yl)benzo[d][1,3]dioxol-2-yl)benzonitrile]", "pEC50": "< 7.00"},
      {"compound": "N#Cc1ccc(COc2cccc(C3CCN(Cc4nc5ccc(C(=O)O)cc5n4Cc4cncs4)C4CC34)n2)c(F)c1", "note": "(centres unmarked) [Compound 16, 2-((5-(6-((4-Cyano-2-fluorobenzyl)oxy)pyridin-2-yl)-2-azabicyclo[4.1.0]heptan-2-yl)methyl)-1-(thiazol-5-ylmethyl)-1H-benzo[d]imidazole-6-carboxylic Acid]", "pEC50": "7.30 to 8.30"},
      {"compound": "CO[C@H](C)Cn1c(CN2CCC(c3cccc(OCc4ccc(C#N)cc4F)n3)C3CC32)nc2ccc(C(=O)O)cc21", "note": "(stereo partly drawn) [Compound 21, 2-((5-(6-((4-Cyano-2-fluorobenzyl)oxy)pyridin-2-yl)-2-azabicyclo[4.1.0]heptan-2-yl)methyl)-1-((R)-2-methoxypropyl)-1H-benzo[d]imidazole-6-carboxylic Acid]", "pEC50": "7.30 to 8.30"},
      {"compound": "C[C@@]1(c2ccc(C#N)cc2F)Oc2cccc(N3CCN(Cc4nc5ccc(C(=O)O)cc5n4Cc4cncs4)[C@H]4C[C@H]43)c2O1", "note": "[Compound 35, 2-((5-(2-(4-Cyano-2-fluorophenyl)-2-methylbenzo[d][1,3]dioxol-4-yl)-2,5-diazabicyclo[4.1.0]heptan-2-yl)methyl)-1-(thiazol-5-ylmethyl)-1H-benzo[d]imidazole-6-carboxylic Acid]", "pEC50": "< 7.00"},
      {"compound": "CO[C@H](C)Cn1c(CN2CCN(c3cccc4c3OC(C)(c3ccc(C#N)cc3F)O4)C3CC32)nc2ccc(C(=O)O)cc21", "note": "(stereo partly drawn) [Compound 39, 2-((5-(2-(4-Cyano-2-fluorophenyl)-2-methylbenzo[d][1,3]dioxol-4-yl)-2,5-diazabicyclo[4.1.0]heptan-2-yl)methyl)-1-((R)-2-methoxypropyl)-1H-benzo[d]imidazole-6-carboxylic Acid]", "pEC50": "7.00 to 7.30"},
      {"compound": "CC1(c2ccc(C#N)cc2F)Oc2cccc(N3CCN(Cc4nc5ccc(C(=O)O)cc5n4C[C@@H]4CCO4)C4CC43)c2O1", "note": "(stereo partly drawn) [Compound 41, 2-((5-(2-(4-cyano-2-fluorophenyl)-2-methylbenzo[d][1,3]dioxol-4-yl)-2,5-diazabicyclo[4.1.0]heptan-2-yl)methyl)-1-(((S)-oxetan-2-yl)methyl)-1H-benzo[d]imidazole-6-carboxylic Acid]", "pEC50": "> 8.30"},
      {"compound": "CCn1nncc1Cn1c(CN2CCN(c3cccc(OCc4ccc(C#N)cc4F)n3)[C@@H]3C[C@@H]32)nc2ccc(C(=O)O)cc21", "note": "[Compound 44, 2-((5-(6-((4-Cyano-2-fluorobenzyl)oxy)pyridin-2-yl)-2,5-diazabicyclo[4.1.0]heptan-2-yl)methyl)-1-((1-ethyl-1H-1,2,3-triazol-5-yl)methyl)-1H-benzo[d]imidazole-6-carboxylic Acid]", "pEC50": "< 7.00"},
      {"compound": "N#Cc1ccc(COc2cccc(N3CCC(Cc4nc5ccc(C(=O)O)cc5n4Cc4cncs4)C4CC43)n2)c(F)c1", "note": "(centres unmarked) [Compound 46, 2-((2-(6-((4-Cyano-2-fluorobenzyl)oxy)pyridin-2-yl)-2-azabicyclo[4.1.0]heptan-5-yl)methyl)-1-(thiazol-5-ylmethyl)-1H-benzo[d]imidazole-6-carboxylic Acid]", "pEC50": "7.00 to 7.30"}
    ]}
  ]
}
